For data set [1], the system named is endogenous target monocytes in human PBMC. Put plainly: PBMC ex vivo monocyte depletion flow cytometry assay (Example 200). The following applies: with anti-cotinine antibody (SEQ ID NO: 11/12), 18-24 hours, EC50 in molar; for EC50: read-out: Ex Vivo Depletion Assay pEC50 (converted). The format is cell-based. The method in brief: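 Monocyte depletion is reported as pEC50, averaged or given individually across runs, and read by flow cytometry staining CD45, CD14 and CD4 with a viability dye. Compounds, diluted four-fold over 11 points from 1 mM DMSO stocks, were combined with 30 μg/mL Fc-enhanced anti-cotinine antibody and human PBMC, then incubated 18-24 h at 37° C.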
On the technique in general: Flow cytometry measures light scatter and fluorescence of single cells or particles in a stream.

Data set [2] addresses T1, CHOK1 cells engineered to overexpress human CCR2 (Homo sapiens, UniProt P41597).
T1 construct: expressed in transfected cells; host or cells: CHOK1
Put plainly: Antibody dependent cellular cytotoxicity (ADCC) reporter assay (Example 199). The format is cell-based. Particulars: with anti-cotinine antibody (SEQ ID NO: 11/12), Jurkat FcγRIIIa NFAT-luciferase reporter cells, 12-18 hours, EC50 in molar, average or individual runs; for EC50: read-out: ADCC Reporter Assay pEC50 (converted). As for the experimental part: An antibody dependent cellular cytoxocity reporter assay was conducted using the following four assay components: (i) ARM compound of Formula (I) targeting CCR2 (concentrations ranging from […] to 10 μM) (ii) anti-cotinine antibody having a heavy chain sequence of SEQ ID NO: 11 and a light chain sequence of SEQ ID NO: 12 (rabbit variable region with human IgG1 Fc domain containing a DE mutation (S239D/1332E)) (concentrations ranging from 0.01 μg/mL to 200 μg/mL); (iii) target cells: CHOK1 cells engineered to overexpress either human CCR2 (typically 1000-20,000 cells per well) and (iv) reporter cells: Jurkat cells engineered to express FcγRIIIa with the reporter gene luciferase under the control of the NFAT promoter (typically 3000-75,000 cells per well). Reagents were combined in a final volume of 20 μL in a 384-well tissue culture treated plate. All four assay components were incubated together for about 12-18 hours. Thereafter, BioGlo Detection reagent (Promega) was added to the wells to lyse the cells and provide a substrate for the luciferase reporter protein. Luminescence signal was measured on a microplate reader and signal: background was calculated by dividing the signal of a test well by the signal obtained when no heterobivalent compound of Formula (I) was added. EC50 calculations were done using Graphpad Prism Software, specifically a nonlinear regression curve fit (Y=Bottom+(Top−Bottom)/(1+10A((LogEC50−X)*HillSlope))).
ARMs compounds of Formula (I) of the invention were tested for ADCC activity in the above assay in or more experimental runs and the results are shown in Table 3 below. Potency of the compounds of Formula (I) of the invention is reported as a pEC50 value. The pEC50 value is the negative log of the EC50 value, wherein the EC50 value is the half maximal effective concentration measured in molar (M). For compounds tested in more than one experimental run, the pEC50 value is reported as an average.
(In general: In a reporter assay the amount or activity of a reporter protein is the signal.)

Data set [3] concerns the target anti-cotinine antibody (SEQ ID NO: 11/12, rabbit variable region with human IgG1 Fc DE mutation). Put plainly: SPR binding of anti-cotinine antibody to ARM compounds, Biacore T200, 37° C. (Example 202). The following applies: SPR Biacore T200, 37° C., pH 7.4, antibody SEQ ID NO: 11/12 captured on protein A; Kd in molar. In short, it runs like this: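 Run at 37 °C in 10 mM HEPES pH 7.4, 150 mM NaCl, 0.005% P20, 1% DMSO, with compounds titrated from 200 nM (five 3-fold steps) over protein A–captured antibody. A 1:1 kinetic model on double-referenced data gave rate constants, Kd as koff/kon and residence time 1/koff; results as pKd, run-averaged.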
Background: Surface plasmon resonance follows binding to a sensor surface in real time, without labels.

Data set [4] is described as follows: Blood drug concentration analysis by LC-MS/MS after IV dosing with anti-cotinine antibody (Example 201). Particulars: C57 background, human CCR2 knock-in, mouse; hCCR2 knock-in mice, IV 0.1 mpk compound + 10 mpk anti-cotinine antibody, whole blood, 48 hours post-dose; read-out: Exposure of Compound of Formula (I) 48 hours post-dose. The format is in vivo. The method, then: After bleeding, each mouse was sacrificed by cervical dislocation. […] Flow Cytometry Analysis:
Samples were analyzed on Q-Trap. […] The total run time was 2 minutes.

Data set [5] has as its system CCR2 expressing cells (CD11b+Ly6c+Hi) in peripheral blood. Put plainly: In vivo depletion assay, flow cytometry of peripheral blood (Example 201). Particulars: hCCR2 knock-in mice, IV 0.1 mpk compound + 10 mpk anti-cotinine antibody (SEQ ID NO: 13/14), peripheral blood at 48 hr. Details: species or system human CCR2 knock-in mice (C57 background). In short, it runs like this: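 Flow cytometry of blood collected at study termination quantified percent depletion of CD11b+Ly6c+Hi cells and CCR2 expression, using surface markers CD45, CD3, CD11b, Ly6C, human CCR2 after Fc block, with 7AAD viability stain. Compound given in saline:DMSO:PBS formulation, optionally combined with anti-cotinine antibody, incubated 30 min before administration.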

“And” between values parts separate entries of the source, which are not always exact repeats. Equal values may be shown once.

With `CN1C(=O)C[C@H](C(=O)NCCCOCCCNC(=O)CCCC(=O)NC2CCC(C(=O)N[C@@H]3C[C@H](NC(C)(C)C)CC[C@@H]3N3CC[C@H](Nc4ncnc5ccc(C(F)(F)F)cc45)C3=O)CC2)[C@H]1c1cccnc1` (stereo partly drawn) [Example 22, N1-((1R,4r)-4-(((1R,2S,5R)-5-(tert-Butylamino)-2-((S)-2-oxo-3-((6-(trifluoromethyl)quinazolin-4-yl)amino)pyrrolidin-1-yl)cyclohexyl)carbamoyl)cyclohexyl)-N5-(3-(3-((2S,3S)-1-methyl-5-oxo-2-(pyridin-3-yl)pyrrolidine-3-carboxamido)propoxy)propyl)glutaramide], the “Ex Vivo Depletion Assay pEC50” value in data set [1] worked out at 9.2. Also, in data set [2], the “ADCC Reporter Assay pEC50” value is 9 and 9.3. Further, the “pKd of Antibody for ARM Compound of Formula (I)” value in data set [3] was determined as 9.2495.
As for `CC(C)N(C)[C@@H]1CC[C@H](N2CC[C@H](Nc3ncnc4ccc(C(F)(F)F)cc34)C2=O)[C@H](NC(=O)[C@H]2CC[C@H](N3CCN(S(=O)(=O)C4CCN(C(=O)[C@H](C)NC(=O)[C@H]5CC(=O)N(C)[C@@H]5c5cccnc5)CC4)CC3)CC2)C1` [Example 70, (2S,3S)-N-((S)-1-(4-((4-((1R,4S)-4-(((1R,2S,5R)-5-(isopropyl(methyl)amino)-2-((S)-2-oxo-3-((6-(trifluoromethyl)quinazolin-4-yl)amino)pyrrolidin-1-yl)cyclohexyl)carbamoyl)cyclohexyl)piperazin-1-yl)sulfonyl)piperidin-1-yl)-1-oxopropan-2-yl)-1-methyl-5-oxo-2-(pyridin-3-yl)pyrrolidine-3-carboxamide], in data set [4], the concentration at 48 h turned out to be 2.3 ng/mL. Also, the “% Depletion of CCR2 expressing cells” value in data set [5] is 30.51%. The EC50 is 0.1 nM in data set [1] and 0.794 nM in data set [2].
In the case of `CC(C)N(C)[C@@H]1CC[C@H](N2CC[C@H](Nc3ncnc4ccc(C(F)(F)F)cc34)C2=O)[C@H](NC(=O)[C@H]2CC[C@@H](N3CCN(S(=O)(=O)C4CCN(C(=O)[C@H](C)NC(=O)[C@H]5CC(=O)N(C)[C@@H]5c5cccnc5)CC4)CC3)CC2)C1` [Example 71, (2S,3S)-N-((S)-1-(4-((4-((1S,4R)-4-(((1R,2S,5R)-5-(Isopropyl(methyl)amino)-2-((S)-2-oxo-3-((6-(trifluoromethyl)quinazolin-4-yl)amino)pyrrolidin-1-yl)cyclohexyl)carbamoyl)cyclohexyl)piperazin-1-yl)sulfonyl)piperidin-1-yl)-1-oxopropan-2-yl)-1-methyl-5-oxo-2-(pyridin-3-yl)pyrrolidine-3-carboxamide], the concentration at 48 h in data set [4] is 1 ng/mL. Further, the “% Depletion of CCR2 expressing cells” value in data set [5] turned out to be 35.25%. Moreover, the EC50 in data set [1] was 0.794 nM; in data set [2], 10 nM.
As to `CC(C)N(C)[C@@H]1CC[C@H](N2CC[C@H](Nc3ncnc4ccc(C(F)(F)F)cc34)C2=O)[C@H](NC(=O)CCCCCCCCC(=O)NCCCCCCNC(=O)[C@H]2CC(=O)N(C)[C@@H]2c2cccnc2)C1` [Example 166, N1-((1R,2S,5R)-5-(isopropyl(methyl)amino)-2-((S)-2-oxo-3-((6-(trifluoromethyl)quinazolin-4-yl)amino)pyrrolidin-1-yl)cyclohexyl)-N10-(6-((2S,3S)-1-methyl-5-oxo-2-(pyridin-3-yl)pyrrolidine-3-carboxamido)hexyl)decanediamide], the EC50 is 1.26 nM in data set [1] and 0.501 nM in data set [2].
For the compound `CC(C)N(CCOCCOCCC(=O)N[C@H]1CC[C@@H](C(=O)N[C@@H]2C[C@H](N(C)C(C)C)CC[C@@H]2N2CC[C@H](Nc3ncnc4ccc(C(F)(F)F)cc34)C2=O)CC1)C(=O)CCNC(=O)[C@H]1CC(=O)N(C)[C@@H]1c1cccnc1` [Example 178, (2S,3S)-N-(3-(Isopropyl(2-(2-(3-(((1S,4s)-4-(((1R,2S,5R)-5-(isopropyl(methyl)amino)-2-((S)-2-oxo-3-((6-(trifluoromethyl)quinazolin-4-yl)amino)pyrrolidin-1-yl)cyclohexyl)carbamoyl)cyclohexyl)amino)-3-oxopropoxy)ethoxy)ethyl)amino)-3-oxopropyl)-1-methyl-5-oxo-2-(pyridin-3-yl)pyrrolidine-3-carboxamide], the EC50 was 0.398 nM in data set [1]; 0.501 nM and 0.126 nM in data set [2].
